From US7727736B2, “Soluble phospholipids for use in clotting factor assays” (The University of North Carolina at Chapel Hill, priority 2003, dated 2010)

Biological target: T1, factor Va (Bos taurus, UniProt Q28107)
T1 sequence (Q28107 29-741 limits assumed): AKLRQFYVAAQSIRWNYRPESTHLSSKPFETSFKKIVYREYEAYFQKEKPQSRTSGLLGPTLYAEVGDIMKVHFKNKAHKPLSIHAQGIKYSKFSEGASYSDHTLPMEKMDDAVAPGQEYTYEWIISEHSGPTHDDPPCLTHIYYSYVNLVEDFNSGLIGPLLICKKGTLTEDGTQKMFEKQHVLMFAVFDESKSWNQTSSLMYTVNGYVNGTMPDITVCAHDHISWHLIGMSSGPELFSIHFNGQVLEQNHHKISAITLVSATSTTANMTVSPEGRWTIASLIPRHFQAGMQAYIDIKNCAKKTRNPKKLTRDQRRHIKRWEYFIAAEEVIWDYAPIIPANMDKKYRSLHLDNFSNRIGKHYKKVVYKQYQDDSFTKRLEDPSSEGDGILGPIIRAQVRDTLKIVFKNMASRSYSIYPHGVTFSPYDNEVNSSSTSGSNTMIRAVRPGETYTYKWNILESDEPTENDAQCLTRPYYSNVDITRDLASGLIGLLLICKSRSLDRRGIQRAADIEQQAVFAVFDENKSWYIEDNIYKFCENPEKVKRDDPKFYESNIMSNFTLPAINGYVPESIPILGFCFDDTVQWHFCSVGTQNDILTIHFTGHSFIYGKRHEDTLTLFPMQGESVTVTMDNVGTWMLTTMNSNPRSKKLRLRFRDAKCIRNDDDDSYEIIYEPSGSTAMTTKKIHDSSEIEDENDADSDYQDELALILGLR
T1 sequence (Q28107 1565-2211 limits assumed): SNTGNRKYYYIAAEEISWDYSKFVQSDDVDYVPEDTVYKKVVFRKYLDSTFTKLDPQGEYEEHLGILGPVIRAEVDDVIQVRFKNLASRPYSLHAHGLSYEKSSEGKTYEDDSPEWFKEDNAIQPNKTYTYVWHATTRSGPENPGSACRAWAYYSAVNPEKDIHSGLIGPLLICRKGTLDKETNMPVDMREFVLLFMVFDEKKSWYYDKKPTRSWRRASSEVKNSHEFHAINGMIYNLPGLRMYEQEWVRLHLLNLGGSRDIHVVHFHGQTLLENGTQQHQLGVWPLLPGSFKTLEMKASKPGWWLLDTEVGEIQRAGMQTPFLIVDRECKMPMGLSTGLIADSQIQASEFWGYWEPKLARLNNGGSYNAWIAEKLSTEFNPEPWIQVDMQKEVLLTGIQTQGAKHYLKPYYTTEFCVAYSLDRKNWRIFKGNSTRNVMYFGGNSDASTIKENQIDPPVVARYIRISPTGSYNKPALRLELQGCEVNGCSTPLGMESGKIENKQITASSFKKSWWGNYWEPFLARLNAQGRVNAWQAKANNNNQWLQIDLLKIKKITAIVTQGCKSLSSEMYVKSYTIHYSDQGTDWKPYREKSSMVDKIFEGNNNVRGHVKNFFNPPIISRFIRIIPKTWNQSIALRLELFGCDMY
Test: Factor Va inactivation by APC
Assay type: biochemical, bovine
Parameters: APC cuts three bonds in the heavy chain of factor Va; bovine factor Va (100 nM)
Procedure: Aliquots of this mixture (10 μL) were added at selected time intervals to a cuvette containing prothrombin (1.4 μM), DAPA (5 μM), PCPS vesicle (50 μM), and factor Xa (10 nM) in a total assay volume of 1 mL. The fluorescence intensity of the thrombin-DAPA was monitored with time. Under these conditions, the rate of thrombin formation is proportional to the rate of DAPA fluorescence increase and is linearly related to the amount of active factor Va. The two isoforms of factor Va, Va1 (Frame A) and Va2 (Frame B) were inactivated at different rates and to different extents by APC depending on the availability of C6PS.
Proteolysis at Arg^506 leads to partial inactivation, but proteolysis at Arg^306 is necessary for full inactivation (Kalafatis & Mann (1993) J. Biol. Chemistry 268 27246; Nicolaes et al., (1995) J. Biol. Chemistry (1995) 270 21158). […] The rate of proteolysis of the bond at Arg^306 increased from undetectable to a value of kcat/KM=3-3.5×10^6 M^−1sec^−1, identical to the rate reported with PS-containing membranes.

## CCCCCC(=O)OC[C@H](COP(=O)(O)OC[C@H](N)C(=O)O)OC(=O)CCCCC [C6PS, 1,2-dicaproyl-sn-glycero-3-phospho-L-serine]
4 μM C6PS
  effect on extent of factor Va inactivation by APC: only a small effect
  effect on rate of factor Va inactivation by APC: no effect
200 μM C6PS
  factor Va inactivation by APC: complete inactivation
